This test addresses Human Factor D (Homo sapiens (Human), UniProt P00746). The test can be described thus: Human Factor D Assay. Format: biochemical. In short, it runs like this:
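Serum-purified Factor D (80 nM final) preincubated 5 min at room temperature with compound in 50 mM Tris, 1 M NaCl, pH 7.5. Z-L-Lys-SBz and DTNB added at 100 μM each; A405 followed every 30 s for 30 min. IC50 from nonlinear regression of rates versus concentration.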

Where [1] appears, read: Factor D inhibition, assay of Example 10, read-out: IC5 (Stars).

Read-outs that look alike come from different tables or passages of the source.

Chain of Human Factor D (P00746 26-253): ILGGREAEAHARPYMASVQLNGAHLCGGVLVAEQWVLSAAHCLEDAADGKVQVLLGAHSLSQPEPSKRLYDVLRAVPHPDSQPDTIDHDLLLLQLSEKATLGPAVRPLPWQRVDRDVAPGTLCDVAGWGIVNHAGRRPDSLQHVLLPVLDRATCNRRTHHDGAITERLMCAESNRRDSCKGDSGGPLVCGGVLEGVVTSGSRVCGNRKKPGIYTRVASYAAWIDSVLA

Consider `CC(=O)c1nn(CC(=O)N2[C@H](C(=O)N[C@@H](C)CC(C)(C)C)C[C@@]3(C)C[C@@H]23)c2ccc(-c3cnc(C)nc3)cc12` [Compound 588, (1R,3S,5R)-2-(2-(3-acetyl-5-(2-methylpyrimidin-5-yl)-1H-indazol-1-yl)acetyl)-N-((S)-4,4-dimethylpentan-2-yl)-5-methyl-2-azabicyclo[3.1.0]hexane-3-carboxamide], for which the IC50 under setting [1] lay within 1 to 10 µM.
Same read-out and setting: in the case of `CC(=O)c1nn(CC(=O)N2[C@H](C(=O)N[C@H](C)CC(C)(C)C)C[C@@]3(C)C[C@@H]23)c2ccc(-c3cnc(C)nc3)cc12` [Compound 589, (1R,3S,5R)-2-(2-(3-acetyl-5-(2-methylpyrimidin-5-yl)-1H-indazol-1-yl)acetyl)-N-((R)-4,4-dimethylpentan-2-yl)-5-methyl-2-azabicyclo[3.1.0]hexane-3-carboxamide] it was below 1 µM; in that of `CC(=O)c1nn(CC(=O)N2[C@H](C(=O)N[C@@H](C)c3cccc(Cl)c3F)C[C@@]3(C)C[C@@H]23)c2ccc(-c3cnc(C)nc3)cc12` [Compound 590, (1R,3S,5R)-2-(2-(3-acetyl-5-(2-methylpyrimidin-5-yl)-1H-indazol-1-yl)acetyl)-N-((S)-1-(3-chloro-2-fluorophenyl)ethyl)-5-methyl-2-azabicyclo[3.1.0]hexane-3-carboxamide], below 1 µM; in that of `CC(=O)c1nn(CC(=O)N2[C@H](C(=O)NCc3ccncn3)C[C@@]3(C)C[C@@H]23)c2c(C)cc(-c3cnc(C)nc3)cc12` [Compound 592, (1R,3S,5R)-2-(2-(3-acetyl-7-methyl-5-(2-methylpyrimidin-5-yl)-1H-indazol-1-yl)acetyl)-5-methyl-N-(pyrimidin-4-ylmethyl)-2-azabicyclo[3.1.0]hexane-3-carboxamide], 1 to 10 µM.
For the molecule `CC(=O)c1nn(CC(=O)N2[C@H](C(=O)N[C@@H](C)c3ccc(C)cc3)C[C@@]3(C)C[C@@H]23)c2ccc(-c3cnc(C)nc3)cc12` [Compound 598, (1R,3S,5R)-2-(2-(3-acetyl-5-(2-methylpyrimidin-5-yl)-1H-indazol-1-yl)acetyl)-5-methyl-N-((S)-1-(p-tolyl)ethyl)-2-azabicyclo[3.1.0]hexane-3-carboxamide], under setting [1], the IC50 lay within 1 to 10 µM.
Still for that read-out and setting: in the case of `CC(=O)c1nn(CC(=O)N2[C@H](C(=O)N[C@@H](C)c3cccc(Cl)c3)C[C@@]3(C)C[C@@H]23)c2ccc(-c3cnc(C)nc3)cc12` [Compound 599, (1R,3S,5R)-2-(2-(3-acetyl-5-(2-methylpyrimidin-5-yl)-1H-indazol-1-yl)acetyl)-N-((S)-1-(3-chlorophenyl)ethyl)-5-methyl-2-azabicyclo[3.1.0]hexane-3-carboxamide] it was below 1 µM.
The same measure, in the same setting: in the case of `CC(=O)c1nn(CC(=O)N2[C@H](C(=O)N[C@@H](C)c3ccccc3F)C[C@@]3(C)C[C@@H]23)c2ccc(-c3cnc(C)nc3)cc12` [Compound 600, (1R,3S,5R)-2-(2-(3-acetyl-5-(2-methylpyrimidin-5-yl)-1H-indazol-1-yl)acetyl)-N-((S)-1-(2-fluorophenyl)ethyl)-5-methyl-2-azabicyclo[3.1.0]hexane-3-carboxamide] it was below 1 µM.
On the same count and under the same terms, in the case of `CC(=O)c1nn(CC(=O)N2[C@H](C(=O)N[C@H](C)c3cccc(Cl)c3F)C[C@@]3(C)C[C@@H]23)c2ccc(-c3cnc(C)nc3)cc12` [Compound 601, (1R,3S,5R)-2-(2-(3-acetyl-5-(2-methylpyrimidin-5-yl)-1H-indazol-1-yl)acetyl)-N-((R)-1-(3-chloro-2-fluorophenyl)ethyl)-5-methyl-2-azabicyclo[3.1.0]hexane-3-carboxamide] it was below 1 µM; in that of `CC(=O)c1nn(CC(=O)N2[C@H](C(=O)NCCC3CCOCC3)C[C@@]3(C)C[C@@H]23)c2c(C)cc(-c3cnc(C)nc3)cc12` [Compound 606, (1R,3S,5R)-2-(2-(3-acetyl-7-methyl-5-(2-methylpyrimidin-5-yl)-1H-indazol-1-yl)acetyl)-5-methyl-N-(2-(tetrahydro-2H-pyran-4-yl)ethyl)-2-azabicyclo[3.1.0]hexane-3-carboxamide], 1 to 10 µM.
As for `CC(=O)c1nn(CC(=O)N2[C@H](C(=O)NCCN3CCOCC3)C[C@@]3(C)C[C@@H]23)c2c(C)cc(-c3cnc(C)nc3)cc12` [Compound 607, (1R,3S,5R)-2-(2-(3-acetyl-7-methyl-5-(2-methylpyrimidin-5-yl)-1H-indazol-1-yl)acetyl)-5-methyl-N-(2-morpholinoethyl)-2-azabicyclo[3.1.0]hexane-3-carboxamide], the IC50 under setting [1] is 1 to 10 µM.
With “(1R,3S,5S)-2-(2-(3-Acetyl-5-(2-methylpyrimidin-5-yl)-1H-indazol-1-yl)acetyl)-N-(6-bromo-3-(methoxymethyl)pyridin-2-yl)-5-(methoxymethyl)-2-azabicyclo[3.1.0]hexane-3-carboxamide [Compound 49]”, the IC50 (Table 6, Factor D 80 nM, substrate Z-L-Lys-SBz, read-out: IC50) was below 1 µM.
